Results taken from paper PMC5622171 (Nature Communications, 2017).
“Also recorded” adds a separate entry of the source.

What was measured:
mPXR = molecular target: T1, mPXR (Mus musculus, UniProt O54915); assay: mPXR transactivation assay; type: cell-based; details: only at concentrations higher than 5 µM
T1 construct: host or cells: Hepa 1-6
Procedure: For the mPXR transactivation assay, Hepa 1-6 cells were co-transfected with pCMV6-mPXR (Cat. No. MR226044, OriGene Technologies, Rockville, MD), pGL3-CYP3A4-luc and pRL-TK by using Lipofectamine 3000. […] The relative luciferase activity was determined by normalizing the firefly luciferase signal to the Renilla luciferase signal. The final DMSO concentration was 0.3% in all assay wells. In the agonistic assays, 10 μM PCN and DMSO were used as the positive (100% activation) and negative control (0% activation), respectively. […] Compound activity was normalized to the controls.

hPXR = molecular target: T2, hPXR (Homo sapiens, UniProt O75469); assay: hPXR transactivation assay, HepG2 stable cell line, agonistic mode
T2 sequence (O75469 1-434): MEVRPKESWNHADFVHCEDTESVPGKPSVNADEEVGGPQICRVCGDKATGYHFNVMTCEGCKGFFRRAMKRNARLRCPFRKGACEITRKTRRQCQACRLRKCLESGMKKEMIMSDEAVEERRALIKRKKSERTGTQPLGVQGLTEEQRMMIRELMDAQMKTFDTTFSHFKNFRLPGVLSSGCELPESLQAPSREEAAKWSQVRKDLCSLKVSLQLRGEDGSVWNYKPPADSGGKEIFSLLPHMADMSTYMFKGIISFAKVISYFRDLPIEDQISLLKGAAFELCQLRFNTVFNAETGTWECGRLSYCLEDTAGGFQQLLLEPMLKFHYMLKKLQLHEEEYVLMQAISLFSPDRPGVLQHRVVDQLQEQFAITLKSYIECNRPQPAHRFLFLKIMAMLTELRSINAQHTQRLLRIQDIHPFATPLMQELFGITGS

[1] = test system: panel of seven other human nuclear receptors; assay: GeneBLAzer nuclear receptor panel, agonistic and antagonistic modes; type: cell-based
Procedure: For the GeneBLAzer NR-UAS-bla HEK 293 T assays for VDR, RXRα, RXRβ, FXR, GR, LXRα, LXRβ and PPARγ, GeneBLAzer panel nuclear receptor cells, the LiveBLAzer FRET-B/G Loading Kit with CCF4-AM, and all tissue culture reagents were purchased from Thermo Fisher Scientific. The assays were performed in accordance with the manufacturer’s instructions, with minor modifications as reported previously[48]–[50]. Briefly, positive control (as described for each assay), DMSO, and dilutions of test chemicals either alone (for agonistic assays) or in combination with an approximately EC80 concentration of a specific agonist (for antagonistic assays) were incubated with an optimized number of cells for each assay in wells of black 384-well tissue culture-treated clear-bottom plates with 30 µl of the respective assay medium in a 37 °C cell-culture incubator. A group of wells containing assay medium and DMSO, but no cells, served as a background control. The final DMSO concentration was 0.5% for all wells. After 24 h, 6 µl per well of loading solution was added, and this step was followed by an optimal period of incubation at room temperature in the dark before the fluorescent emission at 460 and 535 nm (using excitation at 400 nm) was measured with an EnVision plate reader. […]

CYP3A4 = assay: Paclitaxel metabolism in primary human hepatocytes (LC/MS/MS); type: in vitro ADME; details: 10 µM SPA70, 1 µM PTX, 24 or 48 h
Procedure: Calibration and quality-control samples were prepared.

MDR1 in LS180 cells = assay: MDR1 protein levels (western blot); type: cell-based, human; details: 10 μM SPA70, 1.6 μM RIF, 72 h
Procedure: (§1) Cells were rinsed once with cold PBS then lysed in RIPA lysis buffer (Thermo Fisher Scientific) containing protease inhibitor (Roche). Mouse liver samples were homogenized in 500 μl of cold RIPA lysis buffer in a Bullet Blender Blue homogenizer (Next Advance, Averill Park, NY). Then, 25 μg of total protein lysates were loaded onto NuPAGE 4%–12% Bis-Tris gels (Invitrogen) with NuPAGE MES SDS running buffer (Invitrogen). The proteins were transferred from the gel to a nitrocellulose membrane by using the iBlot gel-transfer system (Invitrogen). The membrane was then blocked for 1 h with Odyssey Blocking Buffer (LI-COR Biosciences, Lincoln, NE) and probed with mouse monoclonal antibodies against CYP3A4 (K03; stock concentration: 2.5 mg ml^−1, diluted 1:5000)[51], MDR1 (D-11; Cat. No. sc-55510, Santa Cruz Biotechnology, Santa Cruz, CA; stock concentration: 0.2 mg ml^−1, diluted 1:1500), hPXR (H-11; Cat. No. sc-48340, Santa Cruz Biotechnology; stock concentration: 0.2 mg ml^−1, diluted 1:400), mouse Cyp3a (Cat. No. MAB10041, Millipore, Temecula, CA; Lot No. 1957980, diluted 1:1000), or β-actin (Cat. No. A5441, Sigma; Lot No. 043M4840V, diluted 1:5000). […] The relative intensity of each protein band was then determined by normalizing the intensity of each protein band to that of actin. […]

MDR1 in LS174T cells = assay: MDR1 protein levels (western blot); type: cell-based, human; details: 10 μM SPA70, 1.6 μM RIF, 72 h
Procedure: as §1

T1 sequence (O54915 whole entry): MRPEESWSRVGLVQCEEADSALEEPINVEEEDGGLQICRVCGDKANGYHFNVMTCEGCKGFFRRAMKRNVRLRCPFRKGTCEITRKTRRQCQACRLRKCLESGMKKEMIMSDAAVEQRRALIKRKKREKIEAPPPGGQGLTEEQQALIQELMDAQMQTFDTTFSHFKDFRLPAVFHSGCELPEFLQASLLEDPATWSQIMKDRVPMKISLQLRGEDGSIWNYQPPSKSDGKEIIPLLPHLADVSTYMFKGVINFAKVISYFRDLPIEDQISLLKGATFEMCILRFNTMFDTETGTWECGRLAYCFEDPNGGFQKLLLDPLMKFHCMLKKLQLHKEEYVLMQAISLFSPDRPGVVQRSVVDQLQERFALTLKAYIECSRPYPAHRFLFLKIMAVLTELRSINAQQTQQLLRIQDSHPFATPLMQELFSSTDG

## COc1ccc(OC)c(-n2nnc(S(=O)(=O)c3ccc(C(C)(C)C)cc3)c2C)c1 [SPA70]
mPXR
  mPXR agonism: very weak mPXR agonist; also recorded: weak agonist of mPXR
hPXR
  Effect on basal activity of hPXR: very weakly inhibited the basal activity
[1]
  Agonistic or antagonistic activity against other human nuclear receptors: no detectable agonistic or antagonistic activity
CYP3A4
  Effect on metabolism of paclitaxel to 3′-p-hydroxypaclitaxel or 6α-hydroxypaclitaxel: substantially blocked
MDR1 in LS180 cells
  Effect on rifampicin induction of MDR1: able to block rifampicin induction of MDR1
MDR1 in LS174T cells
  Effect on rifampicin induction of MDR1: able to block rifampicin induction of MDR1
